From publication PMC2838726 (Molecular cancer therapeutics, 2010)

Assays:
Safety, adverse events = type: in vivo, human; conditions: of 11 patients
[1] = erlotinib 150 mg daily with sorafenib; cycle 1 days +15, 16, 22, 29
[2] = phase I trial of sorafenib plus gefitinib; cited from earlier work
[3] = tested on: RAF signal transduction capacity (MEK1/2 phosphorylation) in monocytes; assay: MEK1/2 pShift assay; type: cell-based, human; conditions: patient 5, one sample, after 7 days of sorafenib (25.9% before sorafenib)
[4] = Sorafenib plasma pharmacokinetics in patients, with and without erlotinib; type: in vivo, human; conditions: for Cmax / Tmax / AUC: human, plasma, oral
incurable solid tumor = assay: Tumor response; type: in vivo, human; conditions: per patient

SMILES | patients needing at least 1 dose delay (Safety, adverse events) | patients with doses delivered in full throughout the study (Safety, adverse events) [patients] | patients with doses reduced (Safety, adverse events) [patients] | patients with drug discontinued (Safety, adverse events) [patients] | mean trough erlotinib concentration (Css,min) [1] | change of gefitinib Cmax and AUC in the presence of sorafenib [2] | additional monocytes shifted to the upper gate with IL3 versus vehicle (pShift) [3] [%] | differences in PK variables of sorafenib in the presence or absence of erlotinib ([4]; day −2 vs day +15, Wilcoxon signed rank test) | Cmax [4] [ng/mL] | Tmax [4] [h] | AUC ([4]; 150 mg) [ng·h/mL] | AUC ([4]; 400 mg) [ng·h/mL] | Cmax ([4]; 400 mg bid) [ng/mL] | Tmax ([4]; 400 mg bid) [h] | TTP (incurable solid tumor) [days]
C#Cc1cccc(Nc2ncnc3cc(OCCOC)c(OCCOC)cc23)c1 [erlotinib] | 7 patients | 6 | 2 | 3 | around 500 ng/ml |  |  |  |  |  |  |  |  |  | 
COc1cc2ncnc(Nc3ccc(F)c(Cl)c3)c2cc1OCCCN1CCOCC1 [gefitinib] |  |  |  |  |  | decrease |  |  |  |  |  |  |  |  | 
CNC(=O)c1cc(Oc2ccc(NC(=O)Nc3ccc(Cl)c(C(F)(F)F)c3)cc2)ccn1 [sorafenib] | Nine | 4 | 7 |  |  |  | 0.7 | No statistically significant differences | 8600 | 4 | 53200 | 70900 | 8600 | 4.2 | 15
